Test results as given in ChEMBL document CHEMBL2429864, “Synthesis and antimicrobial evaluation of 1,3,4-oxadiazole-based chalcone derivatives” (2013).
Converted amounts (≈) assume the structure as drawn.

Legend:
Type in all cases: functional
Aspergillus niger = assay: Antifungal activity against Aspergillus niger ATCC 1015
Candida albicans = assay: Antifungal activity against Candida albicans ATCC 10231
Escherichia coli = assay: Antibacterial activity against Escherichia coli ATCC 25922 by micro dilution/broth titre method
Enterococcus faecalis = assay: Antibacterial activity against Enterococcus faecalis ATCC 29212 by micro dilution/broth titre method
Pseudomonas aeruginosa = assay: Antibacterial activity against Pseudomonas aeruginosa ATCC 27853 by micro dilution/broth titre method
Staphylococcus aureus = assay: Antibacterial activity against Staphylococcus aureus ATCC 25923 by micro dilution/broth titre method

SMILES | MIC (Aspergillus niger) | MIC (Candida albicans) | MIC (Escherichia coli) | MIC (Enterococcus faecalis) | MIC (Pseudomonas aeruginosa) | MIC (Staphylococcus aureus)
COc1ccc(/C=C\C(=O)c2ccc(NC(=O)CSc3nnc(-c4cccc([N+](=O)[O-])c4)o3)cc2)cc1 | 125 µg/mL (≈ 242 µM) | 125 µg/mL (≈ 242 µM) | 62.5 µg/mL (≈ 121 µM) | 125 µg/mL (≈ 242 µM) | 62.5 µg/mL (≈ 121 µM) | 62.5 µg/mL (≈ 121 µM)
O=C(CSc1nnc(-c2cccc([N+](=O)[O-])c2)o1)Nc1ccc(C(=O)/C=C\c2ccc(O)cc2)cc1 | 62.5 µg/mL (≈ 124 µM) | 62.5 µg/mL (≈ 124 µM) | 31.2 µg/mL (≈ 62.2 µM) | 125 µg/mL (≈ 249 µM) | 31.2 µg/mL (≈ 62.2 µM) | 125 µg/mL (≈ 249 µM)
O=C(CSc1nnc(-c2cccc([N+](=O)[O-])c2)o1)Nc1ccc(C(=O)/C=C\c2ccccc2)cc1 | 125 µg/mL (≈ 257 µM) | 250 µg/mL (≈ 514 µM) | 31.2 µg/mL (≈ 64.2 µM) | 31.2 µg/mL (≈ 64.2 µM) | 62.5 µg/mL (≈ 128 µM) | 31.2 µg/mL (≈ 64.2 µM)
O=C(O)c1cn(C2CC2)c2cc(N3CCNCC3)c(F)cc2c1=O [CIPROFLOXACIN] | – | – | 125 µg/mL (≈ 377 µM) | 125 µg/mL (≈ 377 µM) | 125 µg/mL (≈ 377 µM) | 62.5 µg/mL (≈ 189 µM)
O=C(CSc1nnc(-c2cccc([N+](=O)[O-])c2)o1)Nc1ccc(C(=O)/C=C\c2c(O)ccc3ccccc23)cc1 | 62.5 µg/mL (≈ 113 µM) | 62.5 µg/mL (≈ 113 µM) | 62.5 µg/mL (≈ 113 µM) | 62.5 µg/mL (≈ 113 µM) | 62.5 µg/mL (≈ 113 µM) | 62.5 µg/mL (≈ 113 µM)
O=C(CSc1nnc(-c2cccc([N+](=O)[O-])c2)o1)Nc1ccc(C(=O)/C=C\c2ccccc2[N+](=O)[O-])cc1 | 250 µg/mL (≈ 470 µM) | 250 µg/mL (≈ 470 µM) | 62.5 µg/mL (≈ 118 µM) | 125 µg/mL (≈ 235 µM) | 62.5 µg/mL (≈ 118 µM) | 125 µg/mL (≈ 235 µM)
O=C(CSc1nnc(-c2cccc([N+](=O)[O-])c2)o1)Nc1ccc(C(=O)/C=C\c2ccccc2O)cc1 | 125 µg/mL (≈ 249 µM) | 125 µg/mL (≈ 249 µM) | 62.5 µg/mL (≈ 124 µM) | 125 µg/mL (≈ 249 µM) | 62.5 µg/mL (≈ 124 µM) | 62.5 µg/mL (≈ 124 µM)
COc1ccc(OC)c(/C=C\C(=O)c2ccc(NC(=O)CSc3nnc(-c4cccc([N+](=O)[O-])c4)o3)cc2)c1 | 125 µg/mL (≈ 229 µM) | 125 µg/mL (≈ 229 µM) | 62.5 µg/mL (≈ 114 µM) | 125 µg/mL (≈ 229 µM) | 62.5 µg/mL (≈ 114 µM) | 62.5 µg/mL (≈ 114 µM)
COc1cc(/C=C\C(=O)c2ccc(NC(=O)CSc3nnc(-c4cccc([N+](=O)[O-])c4)o3)cc2)cc(OC)c1OC | 125 µg/mL (≈ 217 µM) | 250 µg/mL (≈ 434 µM) | 62.5 µg/mL (≈ 108 µM) | 62.5 µg/mL (≈ 108 µM) | 62.5 µg/mL (≈ 108 µM) | 62.5 µg/mL (≈ 108 µM)
COc1cc(/C=C\C(=O)c2ccc(NC(=O)CSc3nnc(-c4cccc([N+](=O)[O-])c4)o3)cc2)ccc1O | 250 µg/mL (≈ 469 µM) | 250 µg/mL (≈ 469 µM) | 31.2 µg/mL (≈ 58.7 µM) | 62.5 µg/mL (≈ 117 µM) | 62.5 µg/mL (≈ 117 µM) | 62.5 µg/mL (≈ 117 µM)
O=C(CSc1nnc(-c2cccc([N+](=O)[O-])c2)o1)Nc1ccc(C(=O)/C=C\c2ccc(Cl)cc2)cc1 | 62.5 µg/mL (≈ 120 µM) | 62.5 µg/mL (≈ 120 µM) | 62.5 µg/mL (≈ 120 µM) | 62.5 µg/mL (≈ 120 µM) | 31.2 µg/mL (≈ 60 µM) | 62.5 µg/mL (≈ 120 µM)
OC(Cn1cncn1)(Cn1cncn1)c1ccc(F)cc1F [FLUCONAZOLE] | 62.5 µg/mL (≈ 204 µM) | 125 µg/mL (≈ 408 µM) | – | – | – | –
O=C(CSc1nnc(-c2cccc([N+](=O)[O-])c2)o1)Nc1ccc(C(=O)/C=C\c2ccc([N+](=O)[O-])cc2)cc1 | 250 µg/mL (≈ 470 µM) | 250 µg/mL (≈ 470 µM) | 31.2 µg/mL (≈ 58.8 µM) | 62.5 µg/mL (≈ 118 µM) | 62.5 µg/mL (≈ 118 µM) | 62.5 µg/mL (≈ 118 µM)
O=C(CSc1nnc(-c2cccc([N+](=O)[O-])c2)o1)Nc1ccc(C(=O)/C=C\c2ccc(Br)cc2)cc1 | 250 µg/mL (≈ 442 µM) | 250 µg/mL (≈ 442 µM) | 62.5 µg/mL (≈ 111 µM) | 62.5 µg/mL (≈ 111 µM) | 62.5 µg/mL (≈ 111 µM) | 62.5 µg/mL (≈ 111 µM)
COc1ccc(/C=C\C(=O)c2ccc(NC(=O)CSc3nnc(-c4cccc([N+](=O)[O-])c4)o3)cc2)cc1OC | 500 µg/mL (≈ 915 µM) | 500 µg/mL (≈ 915 µM) | 62.5 µg/mL (≈ 114 µM) | 31.2 µg/mL (≈ 57.2 µM) | 62.5 µg/mL (≈ 114 µM) | 62.5 µg/mL (≈ 114 µM)
CN(C)c1ccc(/C=C\C(=O)c2ccc(NC(=O)CSc3nnc(-c4cccc([N+](=O)[O-])c4)o3)cc2)cc1 | 125 µg/mL (≈ 236 µM) | 62.5 µg/mL (≈ 118 µM) | 31.2 µg/mL (≈ 59 µM) | 125 µg/mL (≈ 236 µM) | 62.5 µg/mL (≈ 118 µM) | 31.2 µg/mL (≈ 59 µM)
